According to publication PMC8820799, “Angiogenesis and anti-leukaemia activity of novel indole derivatives as potent colchicine binding site inhibitors” (Journal of Enzyme Inhibition and Medicinal Chemistry, 2022):

Tests used:
HuT 78 = assay: CCK-8 assay, HuT 78; format: cell-based; conditions: Homo sapiens, HuT78; leukaemia, ALL; CCK-8, 72 h
Description: (§1) Cells were seeded in 96-well plates at a density of 8 × 10^3 per well and exposed to different concentrations of compounds for 72 h. Subsequently, 10 µL CCK8 solution was added to each well and co-incubated for another 3–4 h at 37 °C. The absorbance was determined at 450 nm. Data was calculated with GraphPad Prism5 software.[32]

MV4-11 = assay: CCK-8 assay, MV4-11; format: cell-based; conditions: Homo sapiens, leukaemia, AML, CCK-8, 72 h
Description: as §1

THP-1 = assay: CCK-8 assay, THP-1; format: cell-based; conditions: Homo sapiens, leukaemia, AML, CCK-8, 72 h
Description: as §1

HL60 = assay: CCK-8 assay, HL60; format: cell-based; conditions: Homo sapiens, HL-60; leukaemia, APL; CCK-8, 72 h
Description: as §1

K562 = assay: CCK-8 assay, K562; format: cell-based; conditions: Homo sapiens, leukaemia, CML, CCK-8, 72 h
Description: as §1

CCRF-CEM = assay: CCK-8 assay, CCRF-CEM; format: cell-based; conditions: Homo sapiens, leukaemia, ALL, CCK-8, 72 h
Description: as §1

Jurkat = assay: CCK-8 assay, Jurkat; format: cell-based; conditions: Homo sapiens, leukaemia, ALL, CCK-8, 72 h
Description: as §1

[1] = biological target: T1, Tubulin isolated from porcine brain tissue (Sus scrofa, UniProt P02550+P02554); assay: Tubulin polymerisation assay; format: biochemical; conditions: triplicate, mean ± SD; read-out: Tubulin (tubulin inhibitory polymerisation IC50)
T1 construct: purchased Cytoskeleton (Denver, CO), via Beyotime, China; host or cells: porcine brain tissue
T1 sequence (P02554 whole entry): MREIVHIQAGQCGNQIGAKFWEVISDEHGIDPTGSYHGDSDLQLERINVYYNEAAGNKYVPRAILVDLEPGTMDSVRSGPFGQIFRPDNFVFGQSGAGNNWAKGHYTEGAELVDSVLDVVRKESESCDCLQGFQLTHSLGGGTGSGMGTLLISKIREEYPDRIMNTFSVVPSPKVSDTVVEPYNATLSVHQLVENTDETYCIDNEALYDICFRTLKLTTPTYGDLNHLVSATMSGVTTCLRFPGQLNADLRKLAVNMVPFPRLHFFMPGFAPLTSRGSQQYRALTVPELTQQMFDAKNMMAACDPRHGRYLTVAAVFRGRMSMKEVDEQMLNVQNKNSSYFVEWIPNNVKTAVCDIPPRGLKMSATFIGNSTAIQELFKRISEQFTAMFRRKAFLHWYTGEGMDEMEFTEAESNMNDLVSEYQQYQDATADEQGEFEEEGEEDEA
T1 sequence (P02550 whole entry): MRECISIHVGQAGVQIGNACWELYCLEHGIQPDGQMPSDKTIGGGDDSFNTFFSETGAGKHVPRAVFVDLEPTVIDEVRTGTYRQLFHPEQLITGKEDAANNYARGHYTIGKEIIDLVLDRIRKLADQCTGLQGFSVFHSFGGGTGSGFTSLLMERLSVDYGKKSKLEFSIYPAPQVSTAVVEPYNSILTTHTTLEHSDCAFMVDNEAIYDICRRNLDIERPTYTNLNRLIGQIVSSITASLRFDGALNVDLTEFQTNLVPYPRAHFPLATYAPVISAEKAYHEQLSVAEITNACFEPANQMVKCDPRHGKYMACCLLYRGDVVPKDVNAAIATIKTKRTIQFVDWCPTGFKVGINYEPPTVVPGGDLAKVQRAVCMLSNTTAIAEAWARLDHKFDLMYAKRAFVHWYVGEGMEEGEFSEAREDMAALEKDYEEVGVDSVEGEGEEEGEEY
Description: Tubulin polymerisation was determined with the tubulin polymerisation assay kit (Cytoskeleton, Denver, CO which was purchased from Cytoskeleton, Beyotime, China. Tubulin isolated from porcine brain tissue was used in this commercial kit.) It is based on the principal that light is scattered by microtubules to an extent that is proportional to the concentration of the microtubule polymer. Compounds that interact with tubulin will alter the polymerisation of tubulin, and this can be detected using a spectrophotometer. Tubulin polymerisation dynamics was monitored through measuring the change of absorbance at 340 nm every 2 min for 30 min at 37 °C on a spectrophotometer.

[2] = test system: transgenic zebrafish (FLK-1:EGFP); assay: Zebrafish angiogenesis assay (ISVs); format: in vivo; conditions: Danio rerio, transgenic zebrafish; triplicate, mean ± SD; read-out: Zebrafish (antiangiogenic activity IC50)
Description: The transgenic flk: enhanced GFP zebrafish embryos were generated by pair-wise mating, collected and sorted into the 6-well plate (n = 30 per well) with 1 ml of aquaculture water (0.2 g/L of Instant Ocean Salt in distilled water) and raised at 28 °C. Then the embryos staged at 12 h post fertilisation (hpf) were treated with the indicated concentrations of compounds which were added into embryo water. About 30 embryos were screened for each concentration gradient. At 30hpf, the treated embryos were anaesthetised with 0.02% tricaine in embryo water and photographed. The numbers of ISVs were recorded under confocal microscopy. Results were obtained from three independent determinations and presented as mean ± SD.[38]

| Structure (SMILES) | IC50 [1] | melting point | IC50 [2] | also measured |
| --- | --- | --- | --- | --- |
| COc1ccc(/C=C\c2cc(OC)c(OC)c(OC)c2)cc1O [CA-4, Combretastatin A-4, reference compound] | – | – | – | IC50 (HuT 78): 0.24 ± 0.04 µM; IC50 (MV4-11): 0.12 ± 0.03 µM; IC50 (THP-1): 0.08 ± 0.01 µM; IC50 (HL60): 0.26 ± 0.05 µM; IC50 (K562): 0.27 ± 0.01 µM; IC50 (CCRF-CEM): 0.71 ± 0.11 µM; IC50 (Jurkat): 0.19 ± 0.02 µM |
| COc1cc(C(=O)C=Cc2nc3ccccc3[nH]2)cc(OC)c1OC [Compound 9] | 20.8 ± 1.4 µM | – | > 100 µM | – |
| COc1cc(C(=O)C=Cc2cc3ccccc3o2)cc(OC)c1OC [Compound 7] | 18.6 ± 0.5 µM | – | 29.5 ± 1.5 µM | – |
| CCCn1cc(/C=C/C(=O)c2cccc(OC)c2)c2ccccc21 [Compound 27c, (E)-1–(3-Methoxyphenyl)-3–(1-propyl-1H-indol-3-yl)prop-2-en-1-one] | 52.1 ± 2.9 µM | 161 to 162 °C | 18.6 ± 3.2 µM | – |
| COc1cc(C(=O)C=Cc2c[nH]c3ccccc23)cc(OC)c1OC [Compound 6] | 8.5 ± 1.2 µM | – | 27.8 ± 0.9 µM | – |
| COc1ccc(C(=O)/C=C/c2cn(S(=O)(=O)c3ccccc3)c3ccccc23)cc1 [Compound 26e, (E)-1–(4-Methoxyphenyl)-3–(1-(phenylsulfonyl)-1H-indol-3-yl)prop-2-en-1-one] | 58.4 ± 1.7 µM | 165 to 168 °C | 35.6 ± 3.2 µM | – |
| COc1cc(C(=O)C=Cc2ccc3sc4ccccc4c3c2)cc(OC)c1OC [Compound 8] | 45.7 ± 2.3 µM | – | 68.6 ± 2.1 µM | – |
| O=C(/C=C/c1cn(S(=O)(=O)c2ccccc2)c2ccccc12)c1ccc(C(F)(F)F)cc1 [Compound 28e, (E)-3–(1-(phenylsulfonyl)-1H-indol-3-yl)-1–(4-(trifluoromethyl)phenyl)prop-2-en-1-one] | 10.4 ± 0.7 µM | 167 to 170 °C | 5.8 ± 2.1 µM | – |

Second part, led by results:

| IC50 [1] | melting point | Structure (SMILES) | IC50 [2] | also measured |
| --- | --- | --- | --- | --- |
| 49.9 ± 8.5 µM | 160 to 162 °C | COc1cc(C(=O)/C=C/c2cn(C)c3ccccc23)cc(OC)c1OC [Compound 29a, (E)-3–(1-Methyl-1H-indol-3-yl)-1–(3,4,5-trimethoxyphenyl)prop-2-en-1-one] | 15.7 ± 3.2 µM | – |
| 24.8 ± 2.1 µM | 160 to 163 °C | COc1cc(C(=O)/C=C/c2cn(Cc3ccccc3)c3ccccc23)cc(OC)c1OC [Compound 29d, (E)-3–(1-Benzyl-1H-indol-3-yl)-1–(3,4,5-trimethoxyphenyl)prop-2-en-1-one] | 6.7 ± 0.5 µM | – |
| 25.6 µM | – | COc1cc(C(=O)/C=C/c2ccnc3ccccc23)cc(OC)c1OC [DYT-1, (E)-3-(quinolin-4-yl)-1–(3,4,5-trimethoxyphenyl)prop-2-en-1-one] | 38.4 µM | IC50 (K562): 6.2 µM; IC50 (Jurkat): 7.9 µM |
